{"source": "patent US20230381160A1", "about": "“PROPHYLATIC USE OF CALCIUM CHANNEL BLOCKERS IN TUBERCULOSIS” (priority 2020, published 2023)", "system": "active TB", "experiment": "Nested case-control study (NHIRD): drug use and risk of incident active TB", "format": "in vivo, human", "conditions": "incidence of active TB", "text": "National Health Insurance (NHI) program of Taiwan is a compulsory single-payer system that enrolls approximately 24 million residents with 99.8% coverage. We conducted a nested case-control study using the National Health Insurance Research Database (NHIRD) approved from the institutional review board of National Taiwan University Hospital. The NHIRD used a systematic approach to randomly select one million people from the enrollees of NHI, which represents the age, sex, and geographical region distribution of the Taiwanese population. The computerized NHIRD includes information on patient demographics, outpatient and inpatient electronic claim records, individual diagnoses by ICD-9 CM codes, operations, and prescribed medications. Detailed information regarding the name of the prescribed drugs, route of administration, quantity, and number of days of supply are also available. The study was approved by the Institutional Review Board at National Taiwan University Hospital (No. 201311043RINB). Patients' consent was waived because this is an electronic database study using anonymous subjects.\nThe study cohort consisted of all adult patients (≥18 years old) from the NHIRD that were followed longitudinally between January 1999 and December 2011. We used 1999 as pre-enrollment periods. TB was defined as those with any code for TB according to the ICD-9 CM codes (ICD-9 CM codes: 010-018, including all subcategories). All participants in the study cohort were followed and contributed person-time from the first day of 2000 until the earliest of the following end points: first diagnosis of active TB, termination of health insurance coverage, death, or the end of the study period, whichever came first. The year before the year of TB diagnosis was used for the evaluation of the drug exposure. […]\nWe assessed the covariates from the cohort entry to the year before the index date. Covariates assessed included: demographics, pre-existing chronic diseases, medications used, and proxy indicators for the lifestyle such as alcohol consumption or smoking related illness, and obesity or malnutrition. […]", "data": [{"compound": "COC(=O)C1=C(C)NC(C)=C(C(=O)OC)C1c1ccccc1[N+](=O)[O-]", "note": "[Nifedipine, nifedipine]", "values": [{"measurement": "IR % (case/person-years)", "setting": "average daily dose 10 mg", "result": "0% (0/694)"}, {"measurement": "IR % (case/person-years)", "setting": "average daily dose 20 mg", "result": "0.34% (6/1,755)"}, {"measurement": "IR % (case/person-years)", "setting": "average daily dose 30 mg", "result": "0.40% (6/1,499)"}]}]}
